# In patent publication US6924304B2, “Cell proliferation inhibitors” (Abbott Laboratories, priority 1999, dated 2005):
# Where a name gives a salt, the structure may show the parent alone.
# Key:
# [1] = system: human colon adenocarcinoma, MDR positive (HCT-15) cells; assay: 48-hour cellular proliferation assay (sulforhodamine staining), HCT-15 cells; assay type: cell-based; settings: Homo sapiens, 10^−4 M compound, HCT-15 cells (MDR positive)
# Method: (§1) Compounds of this invention were tested in a 48-hour cellular proliferation assay which uses human colon adenocarcinoma, MDR positive (HCT-15) cells, and human lung large cell carcinoma, MDR negative (NCI-H460) cells, in the 96-well microtitre format described in Skehan P., et al. New Colorimetric Cytotoxicity Assay for Anticancer Drug Screening. 1990, J. Natl. Cancer Inst. 82:1107-1112, hereby incorporated by reference. Briefly, the wells of a microtitre plate were charged sequentially with cultured cells and compounds of the invention (1.0×10^−4 to 1.0×10^−11 M in 10% DMSO prepared by dissolving compounds of the invention in DMSO and adding 11 μL of the DMSO solution to 100 μL of culture medium for a final DMSO concentration of 10%). Two of the following controls were also present in each microtitre plate: a solvent (DMSO) control without drug that yielded a 0% inhibition level and a trichloroacetic acid-treated well that yielded a 100% inhibition level. The cells were grown in culture (37° C., 5% CO2 atmosphere) for 48 hours then fixed by the addition of trichloroacetic acid. The wells were stained with sulforhodamine, washed with 1% acetic acid, and treated with 0.01 M tris buffer (100 μL) to solubilize the adherent dye. The absorbance of the dye solution was measured with a Molecular Devices SpectraMax340 plate reader. The percent inhibition values were obtained by calculating the proportional response of the experimental values to the absorbance values of the controls.
# [2] = system: human lung large cell carcinoma, MDR negative (NCI-H460) cells; assay: 48-hour cellular proliferation assay (sulforhodamine staining), NCI-H460 cells; assay type: cell-based; settings: Homo sapiens, 10^−4 M compound, read-out: NCI-460 % inhibition at 10^−4 M
# Method: as §1
melting point [°C],SMILES,inhibition at 100 µM [1] [%],inhibition at 100 µM [2] [%]
200 to 203,"COc1cc(N(C(=O)CN(C)C)S(=O)(=O)c2ccc3c(ccn3C)c2)cc(OC)c1OC (as salt: salt) [Example 67, N-((dimethylamino)acetyl)-1-methyl-N-(3,4,5-trimethoxyphenyl)-1H-indole-5-sulfonamide]",,
,"COc1ccc(OS(=O)(=O)c2cc(OC)c(OC)c(OC)c2)cc1 [Example 47, 4-methoxyphenyl 3,4,5-trimethoxybenzenesulfonate]",100,99.9
175 to 177,"COc1cc(N(C(=O)[C@@H](N)Cc2cnc[nH]2)S(=O)(=O)c2ccc3c(ccn3C)c2)cc(OC)c1OC [Example 76, N-((2S)-2-amino-3-(1H-imidazol-5-yl)propanoyl)-1-methyl-N-(3,4,5-trimethoxyphenyl)-1H-indole-5-sulfonamide]",,
65 to 67,"COc1ccc(CSc2cc(OC)c(OC)c(OC)c2)cc1 [Example 85, 1,2,3-trimethoxy-5-((4-methoxybenzyl)sulfanyl)benzene]",99.8,99.6
103 to 105,"COc1ccc(C[S+]([O-])c2cc(OC)c(OC)c(OC)c2)cc1 (stereo not shown) [Example 86, 1,2,3-trimethoxy-5-((4-methoxybenzyl)sulfinyl)benzene]",99.4,96.5
95 to 97,"COc1ccc(CS(=O)(=O)c2cc(OC)c(OC)c(OC)c2)cc1 [Example 87, 1,2,3-trimethoxy-5-((4-methoxybenzyl)sulfonyl)benzene]",99.9,99.6
,"COc1ccc(C(C)(C)S(=O)(=O)c2cc(OC)c(OC)c(OC)c2)cc1 [Example 88, 1,2,3-trimethoxy-5-((1-(4-methoxyphenyl)-1-methylethyl)sulfonyl)benzene]",85.5,58.4
,"COc1ccc(CSc2cc(OC)c(OC)c(OC)c2)cc1N [Example 89, 2-methoxy-5-(((3,4,5-trimethoxyphenyl)sulfanyl)methyl)aniline]",99.9,99.9
,"COc1ccc(C[S+]([O-])c2cc(OC)c(OC)c(OC)c2)cc1N (stereo not shown) [Example 90, 2-methoxy-5-(((3,4,5-trimethoxyphenyl)sulfinyl)methyl)aniline]",99.5,99.8
,"COc1ccc(CS(=O)(=O)c2cc(OC)c(OC)c(OC)c2)cc1N [Example 91, 2-methoxy-5-(((3,4,5-trimethoxyphenyl)sulfonyl)methyl)aniline]",95,99.8
,"COc1ccc(C(C)(C)S(=O)(=O)c2cc(OC)c(OC)c(OC)c2)cc1N [Example 92, 2-methoxy-5-(1-methyl-1-((3,4,5-trimethoxyphenyl)sulfonyl)ethyl)aniline]",67.1,9.1
,"COc1ccc(SCc2cc(OC)c(OC)c(OC)c2)cc1 [Example 93, 1,2,3-trimethoxy-5-(((4-methoxyphenyl)sulfanyl)methyl)benzene]",99.9,98.6
,"COc1ccc(S(=O)(=O)Cc2cc(OC)c(OC)c(OC)c2)cc1 [Example 94, 1,2,3-trimethoxy-5-(((4-methoxyphenyl)sulfonyl)methyl)benzene]",97.7,90.1
,"COc1ccc(S(=O)(=O)C(C)(C)c2cc(OC)c(OC)c(OC)c2)cc1 [Example 95, 1,2,3-trimethoxy-5-(1-((4-methoxyphenyl)sulfonyl)-1-methylethyl)benzene]",84.8,9.1
,"COc1ccc(S(=O)(=O)Cc2cc(OC)c(OC)c(OC)c2)cc1N [Example 96, 2-methoxy-5-((3,4,5-trimethoxybenzyl)sulfonyl)aniline]",99.8,99.9
